Experiment [1] concerns Murine melanoma B16-F10 cells. Description: In vitro cytotoxicity against B16-F10 cells (neutral red staining, 72 hours). In kind it is cell-based. Conditions: Mus musculus, 72 hours incubation, read-out: Cytotoxicity (IC50, μg/ml). Here is the method: Murine melanoma B16-F10 cells were grown and maintained at 37° C. under a humidified atmosphere in a 5% CO2 incubator in Eagle's MEM medium (Nissui) containing kanamycin (60 μg/ml), and supplemented with heat inactivated fetal calf serum (10%) and non-essential amino acids (0.6%). Exponentially growing B16-F10 cells were harvested, counted and suspended in the culture medium at a concentration of 2.0×10^4 cells/ml. Twenty-four hours after planting cell suspension (180 μl) into wells of a 96-well microtiter plate, test materials (20 μl) were added to the wells and the plates were incubated for 72 hours. The cytotoxic activity against B16-F10 cells was colorimetrically determined at 540 nm after staining viable cells with neutral red solution.
(§1) For the in vivo expermient, only the maximum T/C% and the dose giving the maximum value are shown.

Another experiment has as its system murine P388 leukemia. The experiment in a line: In vivo antitumor activity in the lymphocytic leukemia P388 system. On the set-up: species or system mouse (Female CDF1 mice). Conditions: i.p., once on day 1 (Q1D×1), over 125% significant. Here is the method:
Antitumor activity of representative compounds of the present invention was tested in the lymphocytic leukemia P388 system. Female CDF1 mice were inoculated intraperitoneally with 1.0×10^6 of leukemia cells per mouse (day 0) and test materials were intraperitoneally administered to mice once on day 1 (Q1D×1). […] The median survival time (MST) of each test group was recorded, and antitumor activity was expressed by means of T/C% values calculated by the following equation:
T/C%=(MST treated.div.MST control)×100
The T/C% values of over 125% are considered significant antitumor activity.
as §1

The mark [2] stands for this setting: 120 mg/kg/Day (dose giving maximum T/C%).
Where [3] appears, read: 60 mg/kg/Day (dose giving maximum T/C%).

Each structure is given as a SMILES string. Values after ≈ are worked out from the molar mass of the structure shown. Some results are limits rather than exact numbers.

As for `COc1cc([C@@H]2c3cc4c(cc3[C@@H](O[C@@H]3O[C@H]([C@H]5COC(C)O5)[C@@H](O)[C@H]3O)[C@H]3COC(=O)[C@H]23)OCO4)cc(OC)c1O` (single isomer, unassigned) [Example 2 (epimer I), 4'-demethyl-4-O-(5,6-O-ethylidene-β-D-allofuranosyl)epipodophyllotoxin], in experiment [1], the IC50 is > 100 µg/mL. In addition, the “Anti-P388 T/C % (maximum; MST treated/MST control ×100)” value in the experiment on murine P388 leukemia (setting [2]) is reported as 150%.
For the molecule `COc1cc([C@@H]2c3cc4c(cc3[C@@H](O[C@@H]3O[C@@H]5CO[C@@H](C)O[C@H]5[C@H](O)[C@H]3O)[C@H]3COC(=O)[C@H]23)OCO4)cc(OC)c1O` [Etoposide, reference compound], the IC50 in experiment [1] was determined as 0.21 µg/mL (≈ 0.357 µM). Besides, the “Anti-P388 T/C % (maximum; MST treated/MST control ×100)” value in the experiment with murine P388 leukemia (setting [2]) was 288%.
In the case of `COc1cc([C@@H]2c3cc4c(cc3[C@@H](O[C@H]3O[C@@H]5COC(C)O[C@H]5[C@H](O)[C@@H]3O)[C@H]3COC(=O)[C@H]23)OCO4)cc(OC)c1O` (stereo partly drawn) [Example 4, 4'-demethyl-4-O-(4,6-O-ethylidene-α-D-mannopyranosyl)epipodophyllotoxin], the IC50 in experiment [1] was determined as 19 µg/mL (≈ 32.3 µM). Besides, the “Anti-P388 T/C % (maximum; MST treated/MST control ×100)” value in the experiment with murine P388 leukemia (10 mg/kg/Day (dose giving maximum T/C%)) came out at 124%.
Take `COc1cc([C@@H]2c3cc4c(cc3[C@@H](O[C@@H]3O[C@H]([C@H]5COC(C)O5)[C@@H](O)[C@H]3O)[C@H]3COC(=O)[C@H]23)OCO4)cc(OC)c1O` (single isomer, unassigned) [Example 2 (epimer II), 4'-demethyl-4-O-(5,6-O-ethylidene-β-D-allofuranosyl)epipodophyllotoxin]: the “Anti-P388 T/C % (maximum; MST treated/MST control ×100)” value in the experiment on murine P388 leukemia (setting [3]) came out at 140%.
`COc1cc([C@@H]2c3cc4c(cc3[C@@H](O[C@@H]3O[C@@H]5COC(C)O[C@H]5[C@@H](O)[C@H]3O)[C@H]3COC(=O)[C@H]23)OCO4)cc(OC)c1O` (stereo partly drawn) [Example 1, 4'-Demethyl-4-O-(4,6-O-ethylidene-β-D-allopyranosyl)epidpodophyllotoxin]: the IC50 in experiment [1] came to 2.1 µg/mL (≈ 3.57 µM). In addition, the “Anti-P388 T/C % (maximum; MST treated/MST control ×100)” value with murine P388 leukemia (setting [3]) is 280%.
With `COc1cc([C@@H]2c3cc4c(cc3[C@@H](O[C@@H]3O[C@@H]5COC(C)O[C@H]5[C@H](O)[C@@H]3O)[C@H]3COC(=O)[C@H]23)OCO4)cc(OC)c1O` (stereo partly drawn) [Example 3, 4'-Demethyl-4-O-(4.6-O-ethylidene-β-D-mannopyranosyl)epipodophyllotoxin], the IC50 in experiment [1] was found to be 0.12 µg/mL (≈ 0.204 µM). In the experiment on murine P388 leukemia (30 mg/kg/Day (dose giving maximum T/C%)), the “Anti-P388 T/C % (maximum; MST treated/MST control ×100)” value was 186%.
